Holding throughout (format): ADME, organism-based
Data set [1] in a line: Plasma concentration in HIV infected patient at 300 mg qd measured after 16.60 hrs by plasma based assay using HPLC. Particulars: human.
Data set [2] is described as follows: Plasma concentration in HIV infected patient at 400 mg qd measured after 13.06 hrs by plasma based assay using HPLC. The settings on record: human.
Data set [3] is described as follows: Cmin in HIV infected patient at 400 mg qd measured after 13.06 hrs by plasma based assay using HPLC. The settings on record: human, read-out: Cmin.
Data set [4] can be described thus: Cmin in HIV infected patient at 300 mg qd measured after 16.60 hrs by plasma based assay using HPLC. The settings on record: human, read-out: Cmin.
The nature of data set [5]: Cmax in HIV infected patient at 400 mg qd measured after 13.06 hrs by plasma based assay using HPLC. More on the design: dose 400 mg. Particulars: human.
The nature of data set [6]: Cmax in HIV infected patient at 300 mg qd measured after 16.60 hrs by plasma based assay using HPLC. More on the design: dose 300 mg. The settings on record: human.
The species named for data set [7] is Homo sapiens. Briefly: Plasma concentration in HIV infected patient with HIV RNA of <50 copies/ml by dried blood spot assay using reversed-phase ultrahigh-performance liquid chromatography. The settings on record: in vivo.
For data set [8], the species on record is Homo sapiens. Briefly: Plasma concentration in HIV infected patient with HIV RNA of >50 copies/ml by dried blood spot assay using reversed-phase ultrahigh-performance liquid chromatography. The settings on record: in vivo.

The text below walks through data of ChEMBL document CHEMBL1671733, “Clinical evaluation of a dried blood spot assay for atazanavir” (Antimicrob Agents Chemother, 2010).

As for `COC(=O)N[C@H](C(=O)N[C@@H](Cc1ccccc1)[C@@H](O)CN(Cc1ccc(-c2ccccn2)cc1)NC(=O)[C@@H](NC(=O)OC)C(C)(C)C)C(C)(C)C` [ATAZANAVIR], the concentration at 16.6 h came out at 1630 ng/mL in data set [1] and 196 ng/mL in data set [4]. In addition, the concentration at 13.06 h in data set [2] was 465 ng/mL; in data set [3], 342 ng/mL. Moreover, the Cmax (commonly the peak of the concentration-time curve) in data set [5] amounted to 787 ng/mL; in data set [6] it was 7220 ng/mL. The results for the Cp in the data set listed under Homo sapiens [7] and in the data set filed under Homo sapiens [8] were 1582 ng/mL and 543 ng/mL, respectively.
